Source: patent publication US20050129772A1, “Compositions comprising an HIV protease inhibitor” (Agouron Pharmaceuticals, Inc., priority 2003, published 2005)
Values joined by “and” are separate entries in the source; they are usually repeats but may differ in a detail not shown here. Equal entries are not always repeated.

Experiments:
[1] = in vitro dissolution test in PBS at pH 6.5 and 290 mOsm/kg, 37° C.; type: physicochemical; parameters: AUC: concentration or dose not given beside the values; conditions: for AUC90 (area under the concentration-versus-time curve during the initial ninety minutes) / AUC1200 / C1200 (Compound A concentration at 1200 minutes) / MDC90 (maximum concentration of drug during the initial ninety minutes): dose 3000 μg/mL; for Compound A Concentration: 3000 μg/mL if all dissolved
Method: An in vitro dissolution test was performed to determine whether the amorphous Compound A of Example 1 provides concentration-enhancement relative to the crystalline form of Compound A. For this test, a sufficient amount of material was added to a microcentrifuge test tube so that the concentration of Compound A would have been 3000 μg/mL, if all of Compound A had dissolved. The test was run in duplicate. The tubes were placed in a 37° C. temperature-controlled chamber, and 1.8 mL PBS at pH 6.5 and 290 mOsm/kg was added to each respective tube. The samples were quickly mixed using a vortex mixer for about 60 seconds. The samples were centrifuged at 13,000 G at 37° C. for 1 minute. The resulting supernatant solution was then sampled and diluted 1:6 (by volume) with methanol and then analyzed by high-performance liquid chromatography (HPLC). HPLC analysis was performed using a Phenomenex Luna C18 column. The mobile phase consisted of 55% 20 mM KH2PO4, adjusted to pH 3 with H3PO4, and 45% acetonitrile. UV absorbance was measured at 210 nm. The contents of each tube were mixed on the vortex mixer and allowed to stand undisturbed at 37° C. until the next sample was taken. Samples were collected at 4, 10, 20, 40, 90 and 1200 minutes. Control 1 consisted of crystalline Form I of Compound A alone, and a sufficient amount of material was added so that the concentration of Compound A would have been 3000 μg/mL, if all of Compound A had dissolved. The concentrations of drug obtained in these samples were used to determine the maximum concentration of drug (“MDC90”), the area under the concentration-versus-time curve (“AUC90”) during the initial ninety minutes, and the Compound A concentration at 1200 minutes (“[…]”). Example 2 was prepared by combining amorphous Compound A and a concentration-enhancing polymer. A simple physical mixture of Compound A and the concentration-enhancing polymer hydroxypropyl methyl cellulose acetate succinate (AQUOT-MG, available from Shin Etsu, Tokyo, Japan) was prepared by adding 5.4 mg of amorphous Compound A prepared as in Example 1 and 0.6 mg of HPMCAS to a centrifuge tube. The dry powders were mixed using a vortex mixer for 1 minute. Dissolution tests were performed as described in Example 1. […] For these tests, a sufficient amount of material was added so that the concentration of Compound A would have been 3000 μg/mL, if all of Compound A had dissolved. […] Examples 37A, 37B and 37C were prepared as in Example 2, but with the following exceptions: Example 37A was 5.4 mg Compound A and 0.6 mg HPMCAS; Example 37B was 5.4 mg Compound A and 0.167 mg HPMCAS; and Example 37C was 5.4 mg Compound A and 0.055 mg HPMCAS. Example 37D consisted of amorphous Compound A alone. MDC360 is the maximum dissolved drug concentration within the first 360 minutes, and AUC360 is the area under the dissolved drug concentration versus time curve at 360 minutes.

[2] = oral dosing to fasted beagle dogs, plasma drug concentration; type: in vivo; conditions: 25 mgA/kg; for AUC0-Tlast: oral gavage suspension in 0.5 wt % Methocel, plasma
Method: The area under the concentration-versus-time curve (“AUCO-Tlast”, ng*hr/mL), from the time the dose was administered to the last sample, is shown in Table 17. Crystalline Form I of Compound A (Control 1) and amorphous Compound A (Example 1) were tested using a similar protocol. The dose was administered to dogs as a suspension in a solution containing 0.5 wt % Methocel® (HPMC, USP grade, 4000 cps, Dow Chemical Co.). Oral administration of the aqueous drug suspensions was facilitated using an oral gavage equipped with a polyethylene tube insert. The polyethylene tube insert was used to accurately deliver the desired volume of dose by displacement, without the need for additional volume of water to rinse the tube. The dose was 25 mgA/kg (“mgA” refers to mg of active drug).

[3] = aqueous solubility of crystalline Compound A; type: physicochemical; conditions: 26° C.
Description: The compound (4R)—N-allyl-3-{(2S,3S)-2-hydroxy-3-[(3-hydroxy-2-methylbenzoyl)amino]-4-phenylbutanoyl}-5,5-dimethyl-1,3-thiazolidine-4-carboxamide (also called “(R)-3-((2S,3S)-2-hydroxy-3-{[1-(3-hydroxy-2-methyl-phenyl)-methanoyl]-amino}-4-phenyl-butanoyl)-5,5-dimethyl-thiazolidine-4-carboxylic acid allylamide,” “(4R)-3-[(2S,3S)-2-hydroxy-3-(3-hydroxy-2-methyl-benzoylamino)-4-phenyl-butyryl]-5,5-dimethyl-thiazolidine-4-carboxylic acid allylamide,” or “4-thiazolidinecarboxamide, 3-[(2S,3S)-2-hydroxy-3-[(3-hydroxy-2-methylbenzoyl)amino]-1-oxo-4-phenylbutyl]-5,5-dimethyl-N-2-propenyl-, (4R)-,” and hereinafter referred to as “Compound A”) is an inhibitor of the HIV protease enzyme that may be used for the treatment of HIV-infected mammals, such as humans. Compound A and its preparation are disclosed in U.S. patent application Ser. Nos. 10/166,979 filed Jun. 11, 2002; 60/527,477, filed Dec. 4, 2003, and, 10/782,602, filed Dec. 4, 2003, all of which incorporated herein by reference for this purpose. […] This low aqueous solubility, combined with a low in vivo permeability, result in low oral bioavailability for crystalline Compound A.

[4] = PBS pH 6.5, 37° C., listed as Ex 1
[5] = time 10 min, PBS pH 6.5, 37° C.
[6] = time 20 min, PBS pH 6.5, 37° C.
[7] = time 40 min, PBS pH 6.5, 37° C.
[8] = time 90 min, PBS pH 6.5, 37° C.
[9] = time 1200 min, PBS pH 6.5, 37° C.

Row | Structure (SMILES) | AUC90 (area under the concentration-versus-time curve during the initial ninety minutes) ([1]; PBS pH 6.5, 37° C.) | AUC1200 ([1]; PBS pH 6.5, 37° C.) | C1200 (Compound A concentration at 1200 minutes) ([1]; PBS pH 6.5, 37° C.) [µg/mL] | MDC90 (maximum concentration of drug during the initial ninety minutes) ([1]; PBS pH 6.5, 37° C.) | AUC ([1]; time 0 min, PBS pH 6.5, 37° C.) [µg·min/mL] | Compound A Concentration ([1]; time 0 min, PBS pH 6.5, 37° C.) [µg/mL] | AUC ([1]; time 4 min, PBS pH 6.5, 37° C.) [µg·min/mL] | Compound A Concentration ([1]; time 4 min, PBS pH 6.5, 37° C.) [µg/mL] | AUC [1, 5] [µg·min/mL] | Compound A Concentration [1, 5] [µg/mL] | AUC [1, 6] | Compound A Concentration [1, 6] [µg/mL] | AUC [1, 7] | Compound A Concentration [1, 7] [µg/mL] | AUC [1, 8] | Compound A Concentration [1, 8] [µg/mL] | AUC [1, 9] | Compound A Concentration [1, 9] [µg/mL] | AUC0-Tlast [2] [ng·h/mL] | further results
1 | C=CCNC(=O)[C@H]1N(C(=O)[C@@H](O)[C@H](Cc2ccccc2)NC(=O)c2cccc(O)c2C)CSC1(C)C [Example 1, (4R)—N-allyl-3-{(2S,3S)-2-hydroxy-3-[(3-hydroxy-2-methylbenzoyl)amino]-4-phenylbutanoyl}-5,5-dimethyl-1,3-thiazolidine-4-carboxamide] | 75,900 min * μg/mL | 233,000 min*μg/mL | 126 | 1153 µg/mL and 1150 µg/mL | 0 | 0 | 2100 | 1070 | 8800 | 1140 | 20,200 min * μg/mL | 1150 | 43,200 min * μg/mL | 1150 | 75,900 min * μg/mL | 158 | 233,200 min * μg/mL | 126 | 3500 | AUC90 relative to crystalline Form I of Compound A ([1]; PBS pH 6.5, 37° C.): 8.3 fold; MDC relative to crystalline Form I of Compound A ([1]; PBS pH 6.5, 37° C.): 10.3 fold; AUC90 (area under the concentration-versus-time curve during the initial ninety minutes) [1, 4]: 75,900 min * μg/mL; C1200 (Compound A concentration at 1200 minutes) [1, 4]: 126 µg/mL; MDC90 (maximum concentration of drug during the initial ninety minutes) [1, 4]: 1150 µg/mL; relative bioavailability (AUC of test composition divided by AUC of crystalline Form I of Compound A alone) ([2]; oral): 11.7 fold
2 | C=CCNC(=O)[C@H]1N(C(=O)[C@@H](O)[C@H](Cc2ccccc2)NC(=O)c2cccc(O)c2C)CSC1(C)C [Example 37D, (4R)—N-allyl-3-{(2S,3S)-2-hydroxy-3-[(3-hydroxy-2-methylbenzoyl)amino]-4-phenylbutanoyl}-5,5-dimethyl-1,3-thiazolidine-4-carboxamide] |  |  |  |  |  |  |  |  |  |  |  |  |  |  |  |  |  |  |  | AUC360 (area under the dissolved drug concentration versus time curve at 360 minutes) ([1]; dissolution as in Example 2): 180,000 min*μg/ml; MDC360 (maximum dissolved drug concentration within the first 360 minutes) ([1]; dissolution as in Example 2): 1190 µg/mL; C1200 ([1]; dissolution as in Example 2 (Example 37 series)): 140 µg/mL
3 | C=CCNC(=O)[C@H]1N(C(=O)[C@@H](O)[C@H](Cc2ccccc2)NC(=O)c2cccc(O)c2C)CSC1(C)C [Control 1, (4R)—N-allyl-3-{(2S,3S)-2-hydroxy-3-[(3-hydroxy-2-methylbenzoyl)amino]-4-phenylbutanoyl}-5,5-dimethyl-1,3-thiazolidine-4-carboxamide] | 9200 µg·min/mL | 132,000 min*μg/mL | 109 | 112 µg/mL | 0 | 0 | 200 | 100 | 800 | 100 | 1800 µg·min/mL | 106 | 3900 µg·min/mL | 101 | 9200 µg·min/mL | 112 | 131,700 min * μg/mL | 109 | 300 | 
4 | C=CCNC(=O)[C@H]1N(C(=O)[C@@H](O)[C@H](Cc2ccccc2)NC(=O)c2cccc(O)c2C)CSC1(C)C [Compound A, (4R)—N-allyl-3-{(2S,3S)-2-hydroxy-3-[(3-hydroxy-2-methylbenzoyl)amino]-4-phenylbutanoyl}-5,5-dimethyl-1,3-thiazolidine-4-carboxamide] |  |  |  |  |  |  |  |  |  |  |  |  |  |  |  |  |  |  |  | aqueous solubility ([3]; 0.1 N HCl (pH 1.2)): about 0.16 mgA/mL; aqueous solubility ([3]; normal saline (pH 8.2)): ~0.14 mgA/mL; aqueous solubility ([3]; unbuffered water (pH 8.3)): about 0.16 mgA/mL
